Here are results for one molecule from patent US12637413B2, “Fatty acid amide hydrolase (FAAH) cleavable prodrugs of thyromimetics and combination with peripherally restricted FAAH inhibitors” (Autobahn Therapeutics, Inc., priority 2021, dated 2026).

One data set addresses T1, FAAH (Mus musculus, UniProt O08914).
T1 construct: from tissue; host or cells: living mice; plasma, liver and brain sampled
T1 sequence (O08914 1-579): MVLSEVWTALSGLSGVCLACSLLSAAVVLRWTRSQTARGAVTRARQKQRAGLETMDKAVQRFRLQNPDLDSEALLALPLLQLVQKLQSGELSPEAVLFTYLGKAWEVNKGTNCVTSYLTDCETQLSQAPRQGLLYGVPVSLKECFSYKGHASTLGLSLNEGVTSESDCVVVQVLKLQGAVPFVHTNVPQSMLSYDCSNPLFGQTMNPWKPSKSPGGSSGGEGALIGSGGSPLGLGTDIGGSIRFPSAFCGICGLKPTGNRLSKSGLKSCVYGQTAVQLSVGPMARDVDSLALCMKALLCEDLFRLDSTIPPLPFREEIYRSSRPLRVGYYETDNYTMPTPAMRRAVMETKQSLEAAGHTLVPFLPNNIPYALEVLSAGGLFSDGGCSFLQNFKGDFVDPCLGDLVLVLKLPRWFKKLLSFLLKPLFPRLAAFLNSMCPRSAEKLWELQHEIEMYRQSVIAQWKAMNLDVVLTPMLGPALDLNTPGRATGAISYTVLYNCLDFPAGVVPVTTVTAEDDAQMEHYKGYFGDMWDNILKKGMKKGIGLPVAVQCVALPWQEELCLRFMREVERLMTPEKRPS
The experiment in a line: tissue distribution after co-dosing prodrug ABX-002 with or without PFI or GFI. Format: in vivo, mice. Conditions: plasma, liver and brain, co-dosing with PFI or GFI. As to the method: The ability of globally-penetrant and peripherally-restricted FAAH inhibitors (GFI & PFI, respectively) to alter distribution of ABX-002 and ABX-002A was assessed.
Table 5 depicts the inhibition of active metabolite (LL-650177 or PF-044578454) in AUC in the plasma, liver, and brain after prodrug (ABX-002) co-dosing. Tissue distribution studies in mice confirm global & peripheral inhibition of FAAH.

Another data set deals with T4. Put plainly: plasma T4 (ELISA) after 7 days PO QD dosing. It counts as in vivo, Female C57BL/6 mice. Conditions: Mus musculus; effects on plasma T4, PO QD 7 days, 4 or 8 h after last dose. As to the method: Female C57BL/6 mice (n=5/group), 6-8 weeks old, were acclimated to the study room for at least 3 days before dose administration in the studies. Mice were dosed at 5 mL/kg based on most recent body weight, collected once for the duration of the study. Based on most recent body weight, collected once for the duration of the study, mice were placed into weight-matched treatment dosing cohorts. Mice were given a single administration of PFI or vehicle orally (PO) daily (n=5/group) for 7 days at time=−1 hour. Following the PFI (100 μg/kg) or vehicle dose (10 mL/kg, p.o.), animals were given test article daily at time=0 hour. […] RNA from samples harvested 4 hours after final dose was quantified using a hybridization-based in situ RNA quantification method (NanoString, Seattle, WA), as described below. RNA from samples harvested 8 hours after final dose was quantified using a hybridization-based in situ RNA quantification method (QuantiGene Plex), as described below. […]
T4 was measured in terminal plasma samples using an ELISA kit (Biovision, Inc., Thyroxine [T4] [Mouse/Rat] ELISA Kit, Cat #: K7421-100). […] Absorbance was read at 450 nm within 15 min of addition of the Stop Solution using a Varioskan Lux plate reader (ThermoFisher Scientific, Carlsbad, CA). […] Unknown sample concentrations were determined using GraphPad Prism software (GraphPad Prism 9.0.2, GraphPad Software, San Diego, CA). […]
(In general: An ELISA detects its analyte on a solid surface through an enzyme-linked reagent.)

As usually defined, the ED50 is the dose at which the effect has come halfway, by size or by number of responders. A high value points to a need for a large dose. As for `CNC(=O)COc1cc(Cl)c(Cc2ccc(O)c(C(C)C)c2)c(Cl)c1` [Compound 1], the “prodrug levels with FAAH inhibition” value on FAAH was “did not change or slightly increased”. Moreover, in the data set on T4, the median effective dose (ED50) came to 3.4 µg/kg.
